In publication PMC6145916, “Interaction of mitochondrial fission factor with dynamin related protein 1 governs physiological mitochondrial function in vivo” (Scientific Reports, 2018):

Columns and labels:
SH-SY5Y cells = assay: Mitochondrial ROS (MitoSox Red) in GFP positive SH-SY5Y cells expressing P259 or alanine-substituted P259; type: cell-based, human; settings: P259 sequence alone (no TAT carrier) expressed from vector, two days, relative to empty GFP vector; n = 3, with 3 replicates
Protocol: (§1) Represented Western blot is cropped from a full blot shown in the Expanded Western Blots section of the Supplementary Information. […] Hoechst 33342 is shown in blue and Tom20 in green (n = 3, 10 images each). Below, quantification of the form factor (degree of branching) and major axis length (length of mitochondria). At least 6,000 mitochondrial fragments were measured for each condition. Mitochondrial reactive oxygen species (ROS) production (MitoSox Red) (c) and mitochondrial membrane potential (TMRM) (d) after overnight treatment with indicated concentrations of peptide or FCCP. Data are from 3 independent experiments per condition normalized to the average no peptide value. (e) Relative mitochondrial ROS (MitoSox Red) signal in GFP positive cells expressing full-length or alanine-substituted P259 at indicated amino acids after two days of transfection. Values are normalized to a GFP empty vector (n = 3, with 3 replicates). […] Data are mean ± s.e.
Using mitochondrial ROS as a phenotypic output, we determined which residues of P259 were necessary for its function.
DMI6000B inverted microscope. All mitochondria were imaged with a GFP fi lter. Then, green […]
filter every 30 seconds for 5 minutes. […]
GFP filter (Keyence). […] The GFP and MitoSox signals were measured in a ring around each nucleus. Average MitoSox levels were quantified in […]

[1] = tested on: neuroblastoma SH-SY5Y cells; assay: Mitochondrial morphology (Tom20 immunofluorescence), SH-SY5Y; type: cell-based, human; settings: 4 µM TAT-P259 or 10 µM Mdivi-1, 30-minute treatment; n = 3, 10 images each
Protocol: as §1, with “s.e. […]” for “s.e.”
Cells were fixed onto Permanox plastic slides with 4% paraformaldehyde in PBS for 10 minutes at room temperature. Cells were permeabilized in 0.1% Triton X-100 and 1% normal goat serum (blocking buffer) for one hour at room temperature. Permeabilized cells were incubated overnight with primary anti-Tom20 antibody (Santa Cruze Biotech, sc-11415, 1:250 dilution) in a humidified chamber. Slides were subsequently incubated with FITC-conjugated goat anti-rabbit IgG for two hours at room temperature in a light-shielding humidified chamber. Cells were washed with blocking buffer and stained with Hoechst 33342 (Invitrogen, OR, USA, […]). Coverslips were mounted with a Slowfade antifade solution (Invitrogen, OR, USA). Images were acquired using an LSM 700 confocal laser-s canning microsc ope equipped with a Plan Apochromat 63x/1.4 NA oil-immersion objective (Zeiss).
Mitochondrial morphology analysis
High-throughput image analysis of mitochondrial morphology was performed using MATLAB with the Image Processing toolkit. Background illumination, obtained by morphological opening of the image, was subtracted from the original image. The image was then passed through a top - hat transformation to highlight objects from the background followed by a pixel-wis e adaptive low-pas s Wiener filter to remove noise. A 90th percentile threshold was used to convert the image to a binary image. Erroneously large and small objects were removed from the image and morphological features were extracted from the binary objects. Major axis length is defined as th e length of the longest line that can be drawn through a binary object while the minor axis length is defined as the length of the shortest line. The aspect ratio is defined by the major axis length divided by the minor axis length. […]

Drp1 = settings: cited from earlier work
Excerpt: However, Mdivi-1 cannot distinguish between Drp1′s physiological and pathological activities. […] Strikingly, while inhibiting the interaction between Drp1 and Fis1 slo ...

[2] = target: T1, recombinant human Drp1 (dynamin related protein 1) (human, UniProt O00429 1-736); assay: graphene surface with transistors measuring electrical conductance; settings: both partners purified
T1 construct: dynamin related protein 1 (Drp1), human, recombinant; details may stand in the Supplementary Methods; also called recombinant Drp1
T1 sequence (O00429 whole entry): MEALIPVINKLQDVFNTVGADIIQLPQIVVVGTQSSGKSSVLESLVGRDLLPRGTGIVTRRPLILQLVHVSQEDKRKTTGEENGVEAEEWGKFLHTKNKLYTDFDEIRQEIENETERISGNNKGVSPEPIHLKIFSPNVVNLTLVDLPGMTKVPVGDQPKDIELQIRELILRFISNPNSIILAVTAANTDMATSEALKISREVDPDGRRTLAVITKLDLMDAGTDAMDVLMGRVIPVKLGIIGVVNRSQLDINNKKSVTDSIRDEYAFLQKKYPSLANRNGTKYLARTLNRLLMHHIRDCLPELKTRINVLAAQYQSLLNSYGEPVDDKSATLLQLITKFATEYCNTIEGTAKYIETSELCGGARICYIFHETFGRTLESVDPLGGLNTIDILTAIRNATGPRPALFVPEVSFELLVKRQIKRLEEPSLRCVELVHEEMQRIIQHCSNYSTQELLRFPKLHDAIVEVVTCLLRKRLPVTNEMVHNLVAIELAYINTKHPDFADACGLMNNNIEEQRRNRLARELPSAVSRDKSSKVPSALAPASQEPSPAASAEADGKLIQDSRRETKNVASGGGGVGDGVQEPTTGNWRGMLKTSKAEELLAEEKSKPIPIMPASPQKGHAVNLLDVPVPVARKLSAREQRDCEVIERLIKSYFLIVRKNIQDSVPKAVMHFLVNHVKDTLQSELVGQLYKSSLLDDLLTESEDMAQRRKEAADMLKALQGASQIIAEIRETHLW

## IIQLPEIVVV [P259 peptide]
SH-SY5Y cells
  mitochondrial ROS levels (MitoSox) in GFP-positive cells: doubled mitochondrial ROS levels

## COc1cc(-n2c(=S)[nH]c3ccccc3c2=O)c(Cl)cc1Cl [Mdivi-1, reference compound]
[1]
  mitochondrial morphology: These effects were similar to treatment with Mdivi-1
Drp1
  GTPase activity of Drp1: inhibitor of the GTPase activity of Drp1

B1: P259 (peptide, UniProt O00429 22-31, looked up)
peptide: IIQLPEIVVV
notes: dynamin related protein 1 (Drp1), residues 22-31, with glutamine 27 replaced by glutamate as found in Mff; The text introduces the TAT carrier only for the cell experiments; whether the in vitro peptide carried it may be told in the Supplementary Methods; also called peptide P259
[2]
  Kd: 0.012 µM
